Laboratory results taken from ChEMBL document CHEMBL1201862, “PubChem BioAssay data set” (2004).
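Grown in 96-well plates, cells were treated for 48 hours with each compound at five concentrations. Insufficient inhibition: endpoint recorded as highest concentration tested. GI50 is the concentration that inhibits growth by half.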 Calls of active or inactive are those of the source. Rule as the data show it: active = GI50 up to about 1.1 µM and inactive = higher.

Key:
Test in all cases: NCI anticancer screen, dose series, 48 h
LOX IMVI = system: LOX IMVI
NCI/ADR-RES = system: NCI/ADR-RES
786-0 = system: 786-0
SK-MEL-28 = system: SK-MEL-28
RXF 393 = system: RXF 393
SNB-19 = system: SNB-19
DU-145 = system: DU-145
NCI-H226 = system: NCI-H226
SNB-75 = system: SNB-75
NCI-H23 = system: NCI-H23
HCC 2998 = system: HCC 2998
A549 = system: A549
CCRF-CEM = system: CCRF-CEM
KM12 = system: KM12
ACHN = system: ACHN
Malme-3M = system: Malme-3M
OVCAR-8 = system: OVCAR-8
NCI-H460 = system: NCI-H460
Hs-578T = system: Hs-578T
MDA-MB-231 = system: MDA-MB-231
MDA-MB-435 = system: MDA-MB-435
BT-549 = system: BT-549
SF-268 = system: SF-268
SW-620 = system: SW-620
T47D = system: T47D
UO-31 = system: UO-31
MDA-N = system: MDA-N
SF-295 = system: SF-295
COLO 205 = system: COLO 205
RPMI-8226 = system: RPMI-8226
HCT-116 = system: HCT-116
OVCAR-3 = system: OVCAR-3
SF-539 = system: SF-539
NCI-H522 = system: NCI-H522
MCF7 = system: MCF7
EKVX = system: EKVX
MOLT-4 = system: MOLT-4
OVCAR-4 = system: OVCAR-4
SK-MEL-5 = system: SK-MEL-5
HT-29 = system: HT-29
A498 = system: A498
HCT-15 = system: HCT-15
U-251 = system: U-251
UACC-62 = system: UACC-62
CAKI-1 = system: CAKI-1
UACC-257 = system: UACC-257
IGROV-1 = system: IGROV-1
SK-MEL-2 = system: SK-MEL-2
HL-60 = system: HL-60
PC-3 = system: PC-3
HOP-92 = system: HOP-92
OVCAR-5 = system: OVCAR-5
SK-OV-3 = system: SK-OV-3
TK-10 = system: TK-10
M14 = system: M14
SN12C = system: SN12C
K562 = system: K562
HOP-62 = system: HOP-62

`C/C(=C\CO)CC[C@@H]1[C@@]2(C)CCCC(C)(C)[C@@H]2CC[C@@]1(C)O` was tested, and the GI50 (LOX IMVI) was 16.1 µM (inactive), the GI50 (NCI/ADR-RES) was 17.1 µM (inactive) and the GI50 (786-0) was 20.4 µM (inactive). The GI50 (SK-MEL-28) was 22.3 µM (inactive), the GI50 (RXF 393) was 17.6 µM (inactive) and the GI50 (SNB-19) was 21.3 µM (inactive). The GI50 (DU-145) was 18 µM (inactive), the GI50 (NCI-H226) was 18.5 µM (inactive) and the GI50 (SNB-75) was 17.7 µM (inactive). For the same compound, the GI50 (NCI-H23) was 20.5 µM (inactive), the GI50 (HCC 2998) was 16 µM (inactive) and the GI50 (A549) was 29.6 µM (inactive). The GI50 (CCRF-CEM) was 20.4 µM (inactive), the GI50 (KM12) was 19.2 µM (inactive) and the GI50 (ACHN) was 34.2 µM (inactive). The GI50 (Malme-3M) was 19.7 µM (inactive), the GI50 (OVCAR-8) was 16.2 µM (inactive) and the GI50 (NCI-H460) was 17.3 µM (inactive). For the same compound, the GI50 (Hs-578T) was 24 µM (inactive), the GI50 (MDA-MB-231) was 17.3 µM (inactive) and the GI50 (MDA-MB-435) was 18.3 µM (inactive). For the same compound, the GI50 (BT-549) was 18.3 µM (inactive), the GI50 (SF-268) was 17.7 µM (inactive) and the GI50 (SW-620) was 22.7 µM (inactive). The GI50 (T47D) was 18.2 µM (inactive), the GI50 (UO-31) was 23.4 µM (inactive) and the GI50 (MDA-N) was 18.7 µM (inactive). The GI50 (SF-295) was 17.6 µM (inactive), the GI50 (COLO 205) was 17.7 µM (inactive) and the GI50 (RPMI-8226) was 17.2 µM (inactive). For the same compound, the GI50 (HCT-116) was 22 µM (inactive), the GI50 (OVCAR-3) was 13.9 µM (inactive) and the GI50 (SF-539) was 18.1 µM (inactive). The GI50 (NCI-H522) was 16.7 µM (inactive), the GI50 (MCF7) was 17.1 µM (inactive) and the GI50 (EKVX) was 24.8 µM (inactive). The GI50 (MOLT-4) was 51.8 µM (inactive), the GI50 (OVCAR-4) was 17.3 µM (inactive) and the GI50 (SK-MEL-5) was 17.9 µM (inactive). For the same compound, the GI50 (HT-29) was 21.3 µM (inactive), the GI50 (A498) was 17 µM (inactive) and the GI50 (HCT-15) was 17.3 µM. For the same compound, the GI50 (U-251) was 17.3 µM (inactive), the GI50 (UACC-62) was 14.1 µM (inactive) and the GI50 (CAKI-1) was 28.6 µM (inactive). For the same compound, the GI50 (UACC-257) was 19.5 µM (inactive), the GI50 (IGROV-1) was 17 µM (inactive) and the GI50 (SK-MEL-2) was 17.6 µM (inactive). The GI50 (HL-60) was 20.5 µM (inactive), the GI50 (PC-3) was 16.4 µM (inactive) and the GI50 (HOP-92) was 16.7 µM (inactive). For the same compound, the GI50 (OVCAR-5) was 23.1 µM (inactive), the GI50 (SK-OV-3) was 21.3 µM (inactive) and the GI50 (TK-10) was 17.5 µM (inactive). For the same compound, the GI50 (M14) was 23.4 µM (inactive), the GI50 (SN12C) was 17.5 µM (inactive) and the GI50 (K562) was 16.5 µM (inactive).

For `O=C(O)C1C(C(=O)Nc2ccc3c(c2)Cc2ccccc2-3)C2(Cl)C(Cl)=C(Cl)C1(Cl)C2(Cl)Cl` (centres undefined), the GI50 (LOX IMVI) was 18.4 µM (inactive), the GI50 (NCI/ADR-RES) was 36.6 µM (inactive) and the GI50 (786-0) was 30.3 µM (inactive). For the same compound, the GI50 (SK-MEL-28) was 21.5 µM (inactive), the GI50 (RXF 393) was 20.5 µM (inactive) and the GI50 (SNB-19) was 36 µM (inactive). The GI50 (DU-145) was 31.1 µM (inactive), the GI50 (NCI-H226) was 29 µM (inactive) and the GI50 (SNB-75) was 26.2 µM (inactive). The GI50 (NCI-H23) was 17.5 µM (inactive), the GI50 (HCC 2998) was 20.6 µM (inactive) and the GI50 (A549) was 33.3 µM (inactive). For the same compound, the GI50 (CCRF-CEM) was 18.7 µM (inactive), the GI50 (KM12) was 18.7 µM (inactive) and the GI50 (ACHN) was 30.3 µM (inactive). For the same compound, the GI50 (Malme-3M) was 20.6 µM (inactive), the GI50 (OVCAR-8) was 20.3 µM (inactive) and the GI50 (Hs-578T) was 19.9 µM (inactive). For the same compound, the GI50 (MDA-MB-231) was 20.2 µM (inactive), the GI50 (MDA-MB-435) was 29.1 µM (inactive) and the GI50 (BT-549) was 19.1 µM (inactive). For the same compound, the GI50 (SF-268) was 26.2 µM (inactive), the GI50 (SW-620) was 25.6 µM (inactive) and the GI50 (T47D) was 32.1 µM (inactive). The GI50 (UO-31) was 22.5 µM (inactive), the GI50 (MDA-N) was 35.6 µM (inactive) and the GI50 (SF-295) was 39.1 µM (inactive). For the same compound, the GI50 (COLO 205) was 17.6 µM (inactive), the GI50 (HOP-62) was 31.2 µM (inactive) and the GI50 (RPMI-8226) was 14.6 µM (inactive). For the same compound, the GI50 (HCT-116) was 18.7 µM (inactive), the GI50 (OVCAR-3) was 17.6 µM (inactive) and the GI50 (SF-539) was 13.2 µM (inactive). The GI50 (NCI-H522) was 18.6 µM (inactive), the GI50 (MCF7) was 22.5 µM (inactive) and the GI50 (EKVX) was 34.4 µM (inactive). For the same compound, the GI50 (MOLT-4) was 11.6 µM (inactive), the GI50 (OVCAR-4) was 27.7 µM (inactive) and the GI50 (SK-MEL-5) was 14.2 µM (inactive). For the same compound, the GI50 (HT-29) was 20.3 µM (inactive), the GI50 (A498) was 19.4 µM (inactive) and the GI50 (HCT-15) was 21.5 µM. For the same compound, the GI50 (U-251) was 15.2 µM (inactive), the GI50 (UACC-62) was 16.1 µM (inactive) and the GI50 (CAKI-1) was 41.9 µM (inactive). The GI50 (UACC-257) was 20.6 µM (inactive), the GI50 (IGROV-1) was 20 µM (inactive) and the GI50 (SK-MEL-2) was 19.1 µM (inactive). The GI50 (HL-60) was 26.6 µM (inactive), the GI50 (PC-3) was 15.6 µM (inactive) and the GI50 (HOP-92) was 21.5 µM (inactive). For the same compound, the GI50 (OVCAR-5) was 20.4 µM (inactive), the GI50 (SK-OV-3) was 45.5 µM (inactive) and the GI50 (TK-10) was 27.2 µM (inactive). The GI50 (M14) was 20.4 µM (inactive), the GI50 (SN12C) was 33.3 µM (inactive) and the GI50 (K562) was 2.6 µM (inactive).
